Measurements: patent US10184933B2, “Compositions, systems and methods for gene expression noise drug screening and uses thereof” (priority 2013, dated 2019)
Entries after “also recorded” stand apart in the source; their conditions may differ. Structures can show the parent of a compound that is named as a salt. Where two headings read alike, the source gives them in different places.

Experiments:
HIV-1 LTR promoter [1] = test: Two-reporter system (LTR-d2GFP and LTR-mCherry) noise measurement; type: cell-based; settings: FIG. 6E; for d2GFP noise / mCherry noise: known transcriptional activators; for transcriptional burst frequency (decreasing noise in mCherry): transcriptional modifiers
Protocol: Without being bound by theory, a destabilized reporter is required to observe transcriptional noise with shorter time scales. GFP noise magnitude (quantified by the variance over the mean fluorescence squared, CV^2) and mean fluorescence were measured by high-throughput flow cytometry 24 hours post 10 uM drug exposure. To control for extrinsic variability in gene expression due to cell volume and state a conservative gating on the population forward versus side scatter was applied (See General Methods). A second LTR driving a long-lived mCherry reporter was integrated and screened alongside the destabilized reporter drug target to control for fluctuations in global resources and post-transcriptional noise sources (FIG. 6E).
To distinguish between compounds that primarily target transcription versus post-transcriptional processes and global resources (extrinsic noise) a second reporter of the LTR promoter driving a stable mCherry gene was included in the same targeted cell population used in the drug noise screen (FIG. 6E). The stable reporter averages out and is unaffected by fluctuations due to episodic transcription. Theory predicts that the destabilized d2GFP reporter can detect transcriptional bursting noise contributions (γp>>kon,koff, where γp is the fluorescent reporter degradation rate) while the two reporters together will move their noise magnitudes to changes in non-transcriptional noise sources. Filtering out non-transcriptional noise signatures of VM hits increases the probability for synergistic reactivation of latency. Noise from the two reporters was compared using the same processing as the LTR-d2GFP. The LTR-mCherry ΔCV^2 of the 85 selected VMs primarily land along the ΔCV^2 d2GFP axis. […]. Of these 25 compounds 15 were identified as modifiers of cell cycle, ATP, inflammation, post-translational modifications, and translation.
In addition to the GFP reporter in the LTR-d2GFP cell line, an LTR driving a long half-life mCherry reporter was present in the cell line. […] To remove compounds that altered CV^2 post transcriptionally, compounds that affected the CV^2 long-lived red reporter while conserving its mean mCherry level were removed. This method continues development of the original and decade-old 2-reporter system for intrinsic versus extrinsic noise measurements in bacteria (Elowitz et al., (2002) Science 297:1183-1186).

HIV-1 LTR promoter [2] = type: cell-based; settings: for variability in gene expression (noise magnitude): known transcriptional modulators applied to the isoclone target, FIG. 6D
[3] = in vivo, cited from earlier work
HIV-1 LTR promoter [4] = test: Single-cell time-lapse fluorescence microscopy of polyclonal LTR d2GFP cell population; type: cell-based; settings: hydrochloride
Excerpt: Lentiviral vectors expressing the LTR-GFP cassette in the absence of Tat were described (Weinberger et al., 2005, Cell, 122(2):169-182) and used to infect 5×10^5 Jurkat cells at a multiplicity of infection <0.1, resulting in 25,000-50,000 infected cells each presumably with a unique integration site. Cells were then sorted by FACS to isolate green fluorescent protein-labeled (GFP+) cells and fluorescently imaged on glass-bottom dishes in RPMI 1640 with 10% fetal calf serum and 1% penicillin-streptomycin and 10 μM of VM at t=0 h for the population which was pre-treated with VM 1 day before imaging. […] For each trajectory, noise autocorrelation [Φ(t)] and magnitude (CV^2) were calculated using an established noise-processing algorithm (Weinberger at al., 2008, Nature Genetics, 40(4):466-470; Dar at al., 2012, Proc Natl Acad Sci USA 109:17454-17459; Boehm et al., 2013, Cell Cycle 12:452-462).
To assess whether identified VMs are specific to the integration site of the drug screen target, a polyclonal LTR d2GFP population was treated with select VM hits and imaged using time-lapse single cell fluorescence microscopy (Dar et al., 2012, Proc Natl Acad Sci USA 109:17454-17459; Boehm et al., 2013, Cell Cycle 12:452-462) (FIG. 6C). […]

[5] = system: latent HIV-1 in JLat 8.6 cells; type: cell-based
JLat cell line 8.6 = system: JLat cell line 8.6
Protocol: FIG. 17 schematically depicts reactivation percentage versus drug toxicity for conventional reactivation cocktails (e.g. TNF+Prostratin, SAHA+Prostratin, SAHA+TNF+Prostratin) and 21 cocktails containing noise-enhancer compounds in combination with TNF+Prostratin. Controls: TNF alone, Prostratin alone, and Untreated, as indicated. Measurements were performed in duplicate on JLat cell line 8.6 after 48 h treatment. […] Details are described, e.g., in Example 9.
(§1) To test whether reactivation could be further optimized, the doses of noise enhancers and activators were varied (FIG. 14).

[6] = system: latent HIV-1 in primary human CD4+ T cells; type: cell-based
Excerpt: (§2) Details on the Siliciano T-Cell model of HIV-1 latency can be found in Yang et al., 2009, J Clin Invest 119:3473-3486. Details on the Planelles T-Cell model of HIV-1 latency can be found in Bosque and Planelles, 2009, Blood 113:58-65.
(§3) To test if VMs enhance reactivation in a primary cell model of latency 14 VMs were selected from the 85 VMs initially screened on the JLat cell line. […] Two separate primary cell models of latency were screened (Bosque and Planelles, 2009, Blood 113:58-65; Yang et al., 2009, J Clin Invest 119:3473-3486) The Siliciano model of latency is generated using primary human CD4+ T cells which are transduced with Bcl-2 to allow long-term in vitro survival. The Bcl-2^+ cells are activated with -CD3/-CD28 antibody and infected with a GFP expressing virus. Cells remain in culture for over a month to allow transition into resting memory states and then sorted for GFP-cells after which the sorted cells are the latent pool of cells tested for reactivation. […] Reactivation experiments were designed with a positive control (PMA with Ionomycin or -CD3/-CD28 activation) as well as media only or VM treatment measurements.

[7] = system: latent HIV-1 in primary cells of two donors; type: cell-based
Excerpt: as §2, §3

HIV-1 LTR promoter [8] = test: Two-reporter system (LTR-d2GFP and LTR-mCherry) noise measurement; type: cell-based; settings: alternate set of integration sites
[9] = system: latent HIV-1 in JLat cell lines; test: Dose response of reactivation in JLat cell lines (FIG. 14); type: cell-based; settings: with TNF or Prostratin
Protocol: FIGS. 14A and 14B schematically depict dose response curves for compounds V14 and V82 with TNF and Prostratin. FIG. 14A schematically depicts V14 dose response curves with four different concentrations of TNF (left) and five different concentrations of Prostratin (right) at 24 and 48 hours. […] Details are described, e.g., in Example 9.
as §1

[10] = Pharmakon 1600 library, 10 uM, 24 hours, FIG. 10

CCCC(CCC)C(=O)O [VPA, 2-propylpentanoic acid]
d2GFP noise (HIV-1 LTR promoter [1]): increase d2GFP noise | mCherry noise (HIV-1 LTR promoter [1]): decrease mCherry noise | variability in gene expression (noise magnitude) (HIV-1 LTR promoter [2]): increase variability in gene expression; also recorded: variability enhancers | time of peak serum levels ([3]; po): 1 to 4 h | serum half-life [3]: 6 to 16 h

O=C(O)COCCN1CCN(C(c2ccccc2)c2ccc(Cl)cc2)CC1 (stereo not drawn) [V11, cetirizine hydrochloride]
high frequency noise magnitude (HF-CV^2) versus untreated polyclonal population (HIV-1 LTR promoter [4]): increased high frequency noise magnitude; also recorded: increased noise magnitude trends above the untreated population | gene expression noise versus compound concentration (HIV-1 LTR promoter [2]): increasing trend in gene expression noise | identified as variability enhancer (VE) in noise screen (HIV-1 LTR promoter [2]): variability enhancers | concentration at peak in HIV-1 reactivation [5]: 25 µM | synergy in reactivation of HIV-1 latency [5]: synergized | reactivation relative to Prostratin alone ([5]; hydrochloride): about twice; also recorded: about three times | reactivation relative to TNFα alone ([5]; hydrochloride): about twice; also recorded: about three times | reactivation relative to TNFα or Prostratin alone (dose response surface) ([5]; hydrochloride): more than three times; also recorded: almost double; also recorded: greater reactivation | reactivation when combined with TNFα and Prostratin ([5]; hydrochloride): further increase reactivation; also recorded: increased activation | viability when combined with TNFα and Prostratin (JLat cell line 8.6): without significant reduction in viability

C[C@]12CC[C@@H]3c4ccc(OC(=O)N(CCCl)CCCl)cc4CC[C@H]3[C@@H]1CC[C@@H]2O [V3, estramustine]
synergy with activators [6]: synergized with either PMA, prostratin or bryostatin; also recorded: appear to synergize with all three activators | identified as variability enhancer (VE) in noise screen (HIV-1 LTR promoter [2]; [10]): variability enhancers | synergy in reactivation of HIV-1 latency [5]: synergized

C[C@]12C=CC(=O)N[C@@H]1CC[C@@H]1[C@@H]2CC[C@]2(C)[C@@H](C(=O)Nc3cc(C(F)(F)F)ccc3C(F)(F)F)CC[C@@H]12 [V10, dutasteride]
synergy with activators [6]: synergized with either PMA, prostratin or bryostatin; also recorded: appear to synergize with all three activators | identified as variability enhancer (VE) in noise screen (HIV-1 LTR promoter [2]): variability enhancers | synergy in reactivation of HIV-1 latency [5]: synergized

O=C(O)Cc1ccc(-c2ccccc2)cc1 [V4, felbinac]
synergy with bryostatin [7]: synergized with bryostatin | identified as variability enhancer (VE) in noise screen (HIV-1 LTR promoter [2]; [10]): variability enhancers | synergy in reactivation of HIV-1 latency [5]: synergized

O=C(CCCCCCC(=O)Nc1ccccc1)NO [SAHA, N-hydroxy-N′-phenyl-octanediamide]
d2GFP noise (HIV-1 LTR promoter [1]): increase d2GFP noise | mCherry noise (HIV-1 LTR promoter [1]): decrease mCherry noise | transcriptional burst frequency (decreasing noise in mCherry) (HIV-1 LTR promoter [1]): increase transcriptional burst frequency | transcriptional variability (d2GFP) with dose response (HIV-1 LTR promoter [8]): increasing transcriptional variability | identified as variability enhancer (VE) in noise screen (HIV-1 LTR promoter [2]; [10]): variability enhancers | variability in gene expression (noise magnitude) (HIV-1 LTR promoter [2]): increase variability in gene expression; also recorded: variability enhancers | off-target cytotoxicity for uninfected cells (JLat cell line 8.6): substantial off-target cytotoxicity

CC(/C=C/C(=O)NO)=C\[C@@H](C)C(=O)c1ccc(N(C)C)cc1 [TSA, [R-(E,E)]-7-[4-(Dimethylamino)phenyl]-N-hydroxy-4,6-dimethyl-7-oxo-2,4-heptadienamide]
d2GFP noise (HIV-1 LTR promoter [1]): increase d2GFP noise | mCherry noise (HIV-1 LTR promoter [1]): decrease mCherry noise | transcriptional burst frequency (decreasing noise in mCherry) (HIV-1 LTR promoter [1]): increase transcriptional burst frequency | transcriptional variability (d2GFP) with dose response (HIV-1 LTR promoter [8]): increasing transcriptional variability | variability in gene expression (noise magnitude) (HIV-1 LTR promoter [2]): increase variability in gene expression; also recorded: variability enhancers

C[C@@H]1CC[C@H]2[C@@H](C)C(=O)O[C@@H]3O[C@@]4(C)CC[C@@H]1[C@]32OO4 [V14, artemisinin]
synergy with bryostatin [7]: synergized with bryostatin | identified as variability enhancer (VE) in noise screen (HIV-1 LTR promoter [2]; [10]): variability enhancers | synergy in reactivation of HIV-1 latency [5]: synergized | reactivation when combined with TNFα and Prostratin ([5]; VM + TNFα + Prostratin, 48 hours): further increase reactivation; also recorded: increased activation | viability when combined with TNFα and Prostratin (JLat cell line 8.6): without significant reduction in viability | concentration at peak activation ([9]; 24 and 48 hours): about 10 μM

O=c1[nH]c(=O)n([C@H]2C[C@H](O)[C@@H](CO)O2)cc1I [V82, idoxuridine]
identified as variability enhancer (VE) in noise screen (HIV-1 LTR promoter [2]; [10]): variability enhancers | synergy in reactivation of HIV-1 latency [5]: synergized | concentration at maximal reactivation ([9]; 48 hours, two JLat cell lines): 50 µM
